According to patent US8377974B2 (Millennium Pharmaceuticals, Inc., priority 2004, dated 2013):

target: T1, human plasma protein factor Xa (Homo sapiens, UniProt P00742); experiment: Factor Xa IC50 determination: cleavage of paranitroanilide substrate S-2765 in 96-well plates; assay type: biochemical; conditions: fXa 1 nM, S-2765 100 μM, Tris buffered saline pH 7.4, room temperature
T1 construct: measure proteolytic activity of the enzyme (factor Xa); purchased Haematologic Technologies (Essex Junction, Vt.); host or cells: human plasma
Outline: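 Human plasma factor Xa (1 nM) preincubated 5 min at room temperature with inhibitor (0.01 nM–10 μM final) in Tris-buffered saline pH 7.4 with 5 mM CaCl2, 0.1% BSA, 5% DMSO. S-2765 at 100 μM final; hydrolysis at 405 nm over 2 min. IC50 from 4-parameter fit of initial velocities.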

T1 sequence (P00742 235-488 limits assumed): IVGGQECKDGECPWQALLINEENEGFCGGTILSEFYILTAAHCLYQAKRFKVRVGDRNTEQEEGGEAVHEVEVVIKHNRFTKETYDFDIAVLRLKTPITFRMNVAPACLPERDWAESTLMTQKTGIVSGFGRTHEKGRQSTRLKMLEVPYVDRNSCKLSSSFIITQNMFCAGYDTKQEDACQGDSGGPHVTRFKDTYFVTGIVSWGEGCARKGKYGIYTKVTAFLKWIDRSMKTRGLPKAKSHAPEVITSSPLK
T1 sequence (P00742 41-179 partner limits assumed): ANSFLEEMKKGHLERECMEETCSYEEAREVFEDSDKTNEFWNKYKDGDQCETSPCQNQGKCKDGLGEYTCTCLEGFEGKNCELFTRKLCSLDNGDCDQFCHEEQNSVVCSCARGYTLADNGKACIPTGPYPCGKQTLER

Row | SMILES | IC50 [nM]
1 | CN(Cc1ccco1)C(=N)c1ccc(-c2cc(CNC(=O)c3ccc(Cl)s3)on2)cc1 [Example 31, 5-Chloro-thiophene-2-carboxylic acid {3-[4-(N-furan-2-ylmethyl-N-methyl-carbamimidoyl)-phenyl]-isoxazol-5-ylmethyl}-amide] | ≤ 100
2 | N=C(c1ccc(C2=NOC(CNC(=O)c3ccc(Cl)s3)C2)c(OC2CCCCC2)c1)N1CCCC1 (stereo not drawn) [Example 117, 5-Chloro-thiophene-2-carboxylic acid {3-[2-cyclohexyloxy-4-(imino-pyrrolidin-1-yl-methyl)-phenyl]-4,5-dihydro-isoxazol-5-ylmethyl}-amide] | ≤ 100
3 | CSc1ccccc1-c1ccc(C2=NOC(CNC(=O)c3ccc(Cl)s3)C2)cc1 (stereo not drawn) [Example 185, 5-Chloro-thiophene-2-carboxylic acid [3-(2′-methylsulfanyl-biphenyl-4-yl)-4,5-dihydro-isoxazol-5-ylmethyl]-amide] | ≥ 500
4 | O=C(NCC1CC(c2ccc(-c3ccccc3CN3CCOCC3)cc2)=NO1)c1ccc(Cl)s1 (stereo not drawn) [Example 197, 5-Chloro-thiophene-2-carboxylic acid [3-(2′-morpholin-4-ylmethyl-biphenyl-4-yl)-4,5-dihydro-isoxazol-5-ylmethyl]-amide] | ≤ 100
5 | CN1CCN=C1c1ccc(C2=NOC(CNC(=O)c3ccc(Cl)s3)C2)c(OC2CCCC2)c1 (stereo not drawn) [Example 113, 5-Chloro-thiophene-2-carboxylic acid {3-[2-cyclopentyloxy-4-(1-methyl-4,5-dihydro-1H-imidazol-2-yl)-phenyl]-4,5-dihydro-isoxazol-5-ylmethyl}-amide] | ≤ 100
6 | CCOC(=O)C1CCN(C(=N)c2ccc(C3=NOC(CNC(=O)c4ccc(Cl)s4)C3)cc2)CC1 (stereo not drawn) [Example 12, 1-{[4-(5-{[(5-Chloro-thiophene-2-carbonyl)-amino]-methyl}-4,5-dihydro-isoxazol-3-yl)-phenyl]-imino-methyl}-piperidine-4-carboxylic acid ethyl ester] | 100 to 500
7 | CN1CCN=C1c1ccc(-n2cc(CNC(=O)c3ccc(Cl)s3)nn2)c(F)c1 [Example 324, 5-Chloro-N-((1-(2-fluoro-4-(1-methyl-4,5-dihydro-1H-imidazol-2-yl)phenyl)-1H-1,2,3-triazol-4-yl)methyl)thiophene-2-carboxamide] | ≤ 100
8 | O=C(NCc1nc(-c2ccc(-n3ccccc3=O)cc2)no1)c1ccc(Cl)s1 [Example 311, 5-Chloro-N-((3-(4-(2-oxopyridin-1(2H)-yl)phenyl)-1,2,4-oxadiazol-5-yl)methyl)thiophene-2-carboxamide] | ≤ 100
9 | N=C(c1ccc(-c2cccc(CNC(=O)c3ccc(Cl)s3)c2)cc1)N1CCCC1 [Example 382, 5-Chloro-N-((3-(4-(imino(pyrrolidin-1-yl)methyl)phenyl)phenyl)methyl)thiophene-2-carboxamide] | ≤ 100
10 | O=C(NCc1cn(-c2ccc(I)cc2F)nn1)c1ccc(Cl)s1 [Example 304, 5-Chloro-N-((1-(2-fluoro-4-iodophenyl)-1H-1,2,3-triazol-4-yl)methyl)thiophene-2-carboxamide] | ≥ 500
11 | O=C(NCc1cc(-c2ccc(Cl)cc2)no1)c1ccc(Cl)s1 [Example 155, 5-Chloro-thiophene-2-carboxylic acid [3-(4-chloro-phenyl)-isoxazol-5-ylmethyl]-amide] | ≥ 500
12 | N=C(c1ccc(-c2coc(CNC(=O)c3ccc(Cl)s3)n2)cc1)N1CCCC1 [Example 359, 5-Chloro-N-((4-(4-(imino(pyrrolidin-1-yl)methyl)phenyl)oxazol-2-yl)methyl)thiophene-2-carboxamide] | 100 to 500
13 | N=C(c1ccc(-c2cncc(CNC(=O)c3ccc(Cl)s3)c2)cc1)N1CCCCC1 [Example 373, 5-Chloro-N-((5-(4-(imino(piperidin-1-yl)methyl)phenyl)pyridin-3-yl)methyl)thiophene-2-carboxamide] | ≤ 100
14 | CC1(CNC(=O)c2ccc(Cl)s2)CC(c2ccccc2)=NO1 (stereo not drawn) [Example 145, 5-Chloro-thiophene-2-carboxylic acid (5-methyl-3-phenyl-4,5-dihydro-isoxazol-5-ylmethyl)-amide] | ≥ 500
15 | O=C(NCc1cc(-c2ccc(-c3ccccc3CN3CCCC3)cc2)no1)c1ccc(Cl)s1 [Example 210, 5-Chloro-thiophene-2-carboxylic acid [3-(2′-pyrrolidin-1-ylmethyl-biphenyl-4-yl)-isoxazol-5-ylmethyl]-amide] | 100 to 500
16 | O=C(NCC1CC(c2ccc(Nc3ccncn3)cc2)=NO1)c1ccc(Cl)s1 (stereo not drawn) [Example 230, 5-Chloro-thiophene-2-carboxylic acid {3-[4-(pyrimidin-4-ylamino)-phenyl]-4,5-dihydro-isoxazol-5-ylmethyl}-amide] | 100 to 500
17 | CCOc1cc(C2=NCCN2C)ccc1-c1cc(CNC(=O)c2ccc(Cl)s2)on1 [Example 123, 5-Chloro-thiophene-2-carboxylic acid {3-[2-ethoxy-4-(1-methyl-4,5-dihydro-1H-imidazol-2-yl)-phenyl]-isoxazol-5-ylmethyl}-amide] | ≤ 100
18 | CN(C)C(=N)c1ccc(-n2cc(CNC(=O)c3ccc(Cl)s3)nn2)cc1 [Example 313, N-((1-(4-(N,N-Dimethylcarbamimidoyl)phenyl)-1H-1,2,3-triazol-4-yl)methyl)-5-chlorothiophene-2-carboxamide] | ≤ 100
19 | CCCN(C)C(=N)c1ccc(-n2cc(CNC(=O)c3ccc(Cl)s3)nn2)cc1 [Example 315, N-((1-(4-(N-Methyl-N-propylcarbamimidoyl)phenyl)-1H-1,2,3-triazol-4-yl)methyl)-5-chlorothiophene-2-carboxamide] | ≤ 100
20 | COc1ccc(C2=NOC(C)(CNC(=O)c3ccc(Cl)s3)C2)cc1 (stereo not drawn) [Example 151, 5-Chloro-thiophene-2-carboxylic acid [3-(4-methoxy-phenyl)-5-methyl-4,5-dihydro-isoxazol-5-ylmethyl]-amide] | ≥ 500
21 | CN(C)CCN(C)C(=N)c1ccc(-c2cc(CN(C)C(=O)c3ccc(Cl)s3)on2)cc1 [Example 44, 5-Chloro-thiophene-2-carboxylic acid (3-{4-[N-(2-dimethylamino-ethyl)-N-methyl-carbamimidoyl]-phenyl}-isoxazol-5-ylmethyl)-methyl-amide] | ≥ 500
22 | COc1ccc(C2=NOC(CNC(=O)c3ccc(Cl)s3)C2)cc1 (stereo not drawn) [Example 150, 5-Chloro-thiophene-2-carboxylic acid [3-(4-methoxy-phenyl)-4,5-dihydro-isoxazol-5-ylmethyl]-amide] | ≥ 500

Results, then the compound that gave them:

Row | IC50 [nM] | SMILES
23 | ≤ 100 | O=C(NCC1CC(c2ccc(-c3ccccc3CN3CCCCC3)cc2)=NO1)c1ccc(Cl)s1 (stereo not drawn) [Example 196, 5-Chloro-thiophene-2-carboxylic acid [3-(2′-piperidin-1-ylmethyl-biphenyl-4-yl)-4,5-dihydro-isoxazol-5-ylmethyl]-amide]
24 | 100 to 500 | CN(C)C(=N)c1ccc(C2=NOC(CNC(=O)c3ccc(Cl)s3)C2)c(N2CCCCCC2)c1 (stereo not drawn) [Example 90, 5-Chloro-thiophene-2-carboxylic acid {3-[2-azepan-1-yl-4-(N,N-dimethyl-carbamimidoyl)-phenyl]-4,5-dihydro-isoxazol-5-ylmethyl}-amide]
25 | ≤ 100 | CN(C)C(=O)c1ccc(C2=NOC(CNC(=O)c3ccc(Cl)s3)C2)cc1 (stereo not drawn) [Example 162, 5-Chloro-thiophene-2-carboxylic acid [3-(4-dimethylcarbamoyl-phenyl)-4,5-dihydro-isoxazol-5-ylmethyl]-amide]
26 | 100 to 500 | CCN(C)C(=N)c1ccc(-c2nc(CNC(=O)c3ccc(Cl)s3)co2)cc1 [Example 343, N-((2-(4-(N-Ethyl-N-methylcarbamimidoyl)phenyl)oxazol-4-yl)methyl)-5-chlorothiophene-2-carboxamide]
27 | ≤ 100 | O=C(NCc1cn(-c2ccc(N3CCCCC3=O)nc2)nn1)c1ccc(Cl)s1 [Example 388, 5-Chloro-N-((1-(6-(2-oxopiperidin-1-yl)pyridin-3-yl)-1H-1,2,3-triazol-4-yl)methyl)thiophene-2-carboxamide]
28 | ≤ 100 | CNC(=N)c1ccc(C2=NOC(C)(CNC(=O)c3ccc(Cl)s3)C2)cc1 (stereo not drawn) [Example 69, 5-Chloro-thiophene-2-carboxylic acid {5-methyl-3-[4-(N-methylcarbamimidoyl)-phenyl]-4,5-dihydro-isoxazol-5-ylmethyl}-amide]
29 | ≥ 500 | O=C(NCc1cc(-c2ccc(Nc3ccccn3)cc2)no1)c1ccc(Cl)s1 [Example 252, 5-Chloro-thiophene-2-carboxylic acid {3-[4-(pyridin-2-ylamino)-phenyl]-isoxazol-5-ylmethyl}-amide]
30 | ≤ 100 | CN(C)C(=N)c1ccc(-c2cc(CNC(=O)c3ccc(Cl)s3)on2)c(Oc2ccccc2)c1 [Example 130, 5-Chloro-thiophene-2-carboxylic acid {3-[4-(N,N-dimethyl-carbamimidoyl)-2-phenoxy-phenyl]-isoxazol-5-ylmethyl}-amide]
31 | ≤ 100 | CSc1cc(C(=N)N2CCCCC2)ccc1C1=NOC(CNC(=O)c2ccc(Cl)s2)C1 (stereo not drawn) [Example 139, 5-Chloro-thiophene-2-carboxylic acid {3-[4-(imino-piperidin-1-yl-methyl)-2-methylsulfanyl-phenyl]-4,5-dihydro-isoxazol-5-ylmethyl}-amide]
32 | 100 to 500 | COCCN(C)c1cc(C(=N)N2CCCCC2)ccc1C1=NOC(CNC(=O)c2ccc(Cl)s2)C1 (stereo not drawn) [Example 89, 5-Chloro-thiophene-2-carboxylic acid (3-{4-(imino-piperidin-1-yl-methyl)-2-[(2-methoxy-ethyl)-methyl-amino]-phenyl}-4,5-dihydro-isoxazol-5-ylmethyl)-amide]
33 | ≤ 100 | COc1cc(C(=N)N(C)C)ccc1-c1cc(CNC(=O)c2ccc(Cl)s2)on1 [Example 118, 5-Chloro-thiophene-2-carboxylic acid {3-[4-(N,N-dimethyl-carbamimidoyl)-2-methoxy-phenyl]-isoxazol-5-ylmethyl}-amide]
